Test results reported in ChEMBL document CHEMBL1811903, “Protective role of 14-deoxy-11,12-didehydroandrographolide, a noncytotoxic analogue of andrographolide, in allergic airway inflammation” (J Nat Prod, 2011).
Activity calls are given as the source filed them.

Assays:
[1] = Cytotoxicity against human BEAS2B cells assessed as reduction in cell viability at 3 to 120 uM after 24 to 48 hrs by MTS assay; assay type: cell-based; details: beas-2b
RBL-2H3 [2] = test: Cytotoxicity against rat RBL2H3 cells assessed as reduction in cell viability at 3 to 120 uM after 24 to 48 hrs by MTS assay; assay type: cell-based; details: rbl-2h3, 120 µM
Mus musculus [3] = test: Antiinflammatory activity in ovalbumin-sensitized BALB/c mouse asthma model lung assessed as Inhibition of NF-kappaB p65 subunit nuclear translocation at 1 mg/kg, ip administered 2 hrs before and 10 hrs after ovalbumin challenge measured after 24 hrs by immunoblotting; assay type: functional, organism-based; design: dose 1 mg/kg
Mus musculus [4] = test: Antiinflammatory activity in ovalbumin-sensitized BALB/c mouse asthma model lung assessed as reduction in NF-kappaB DNA binding activity at 1 mg/kg, ip administered 2 hrs before and 10 hrs after ovalbumin challenge measured after 24 hrs by immunoblotting; assay type: functional, organism-based; design: dose 1 mg/kg
[5] = molecular target: Transcription factor p65 (Homo sapiens) (UniProt Q04206); test: Inhibition of NF-kappaB p65 subunit translocation in TNFalpha-stimulated human A549 cells assessed as reduction in p65 level in nuclear extract at 30 uM after 24 hrs by immunoblotting; assay type: cell-based
[6] = molecular target: Transcription factor p65 (Homo sapiens) (UniProt Q04206); test: Inhibition of NF-kappaB p65 subunit in TNFalpha-stimulated human A549 cells assessed as reduction in DNA binding activity at 30 uM after 24 hrs by ELISA; assay type: cell-based
Mus musculus [7] = test: Antiinflammatory activity in ovalbumin-sensitized ip dosed BALB/c mouse asthma model assessed as reduction in IL-4 level in bronchoalveolar lavage fluid administered 2 hrs before and 10 hrs after ovalbumin challenge measured after 24 hrs by ELISA; assay type: functional, organism-based; details: Lung
Mus musculus [8] = test: Antiinflammatory activity in ovalbumin-sensitized ip dosed BALB/c mouse asthma model assessed as reduction in IL-5 level in bronchoalveolar lavage fluid administered 2 hrs before and 10 hrs after ovalbumin challenge measured after 24 hrs by ELISA; assay type: functional, organism-based; details: Lung
Mus musculus [9] = test: Antiinflammatory activity in ovalbumin-sensitized ip dosed BALB/c mouse asthma model assessed as reduction in IL-13 level in bronchoalveolar lavage fluid administered 2 hrs before and 10 hrs after ovalbumin challenge measured after 24 hrs by ELISA; assay type: functional, organism-based; details: Lung
Mus musculus [10] = test: Antiinflammatory activity in ovalbumin-sensitized ip dosed BALB/c mouse asthma model assessed as reduction in eotaxin level in bronchoalveolar lavage fluid administered 2 hrs before and 10 hrs after ovalbumin challenge measured after 24 hrs by ELISA; assay type: functional, organism-based; details: Lung
Mus musculus [11] = test: Antiinflammatory activity in ovalbumin-sensitized BALB/c mouse asthma model assessed as reduction in total IgE level in serum at 0.1 to 1 mg/kg, ip administered 2 hrs before and 10 hrs after ovalbumin challenge measured after 24 hrs by ELISA; assay type: functional, organism-based
Mus musculus [12] = test: Antiinflammatory activity in ovalbumin-sensitized BALB/c mouse asthma model assessed as reduction in IgE level in serum at 0.1 to 1 mg/kg, ip administered 2 hrs before and 10 hrs after ovalbumin challenge measured after 24 hrs by ELISA; assay type: functional, organism-based
Mus musculus [13] = test: Antiinflammatory activity in ovalbumin-sensitized BALB/c mouse asthma model assessed as reduction in IgG1 level in serum at 0.1 to 1 mg/kg, ip administered 2 hrs before and 10 hrs after ovalbumin challenge measured after 24 hrs by ELISA; assay type: functional, organism-based
Mus musculus [14] = test: Antiinflammatory activity in ovalbumin-sensitized BALB/c mouse asthma model assessed as reduction in IgG2a level in serum at 0.1 to 1 mg/kg, ip administered 2 hrs before and 10 hrs after ovalbumin challenge measured after 24 hrs by ELISA; assay type: functional, organism-based
Mus musculus [15] = test: Antiinflammatory activity in ovalbumin-sensitized BALB/c mouse asthma model lung assessed as suppression in VCAM-1 mRNA level at 1 mg/kg, ip administered 2 hrs before and 10 hrs after ovalbumin challenge measured after 24 hrs by RT-PCR analysis; assay type: functional, organism-based; design: dose 1 mg/kg
Mus musculus [16] = test: Antiinflammatory activity in ovalbumin-sensitized BALB/c mouse asthma model lung assessed as suppression in E-selectin mRNA level at 1 mg/kg, ip administered 2 hrs before and 10 hrs after ovalbumin challenge measured after 24 hrs by RT-PCR analysis; assay type: functional, organism-based; design: dose 1 mg/kg
Mus musculus [17] = test: Antiinflammatory activity in ovalbumin-sensitized BALB/c mouse asthma model lung assessed as suppression in MCP-1 mRNA level at 1 mg/kg, ip administered 2 hrs before and 10 hrs after ovalbumin challenge measured after 24 hrs by RT-PCR analysis; assay type: functional, organism-based; design: dose 1 mg/kg
Mus musculus [18] = test: Antiinflammatory activity in ovalbumin-sensitized BALB/c mouse asthma model lung assessed as suppression in AMCase mRNA level at 1 mg/kg, ip administered 2 hrs before and 10 hrs after ovalbumin challenge measured after 24 hrs by RT-PCR analysis; assay type: functional, organism-based; design: dose 1 mg/kg
Mus musculus [19] = test: Antiinflammatory activity in ovalbumin-sensitized BALB/c mouse asthma model lung assessed as suppression in Ym-1 mRNA level at 1 mg/kg, ip administered 2 hrs before and 10 hrs after ovalbumin challenge measured after 24 hrs by RT-PCR analysis; assay type: functional, organism-based; design: dose 1 mg/kg
Mus musculus [20] = test: Antiinflammatory activity in ovalbumin-sensitized BALB/c mouse asthma model lung assessed as suppression in Ym-2 mRNA level at 1 mg/kg, ip administered 2 hrs before and 10 hrs after ovalbumin challenge measured after 24 hrs by RT-PCR analysis; assay type: functional, organism-based; design: dose 1 mg/kg
Mus musculus [21] = test: Antiinflammatory activity in ovalbumin-sensitized BALB/c mouse asthma model lung assessed as suppression in […] mRNA level at 1 mg/kg, ip administered 2 hrs before and 10 hrs after ovalbumin challenge measured after 24 hrs by RT-PCR analysis; assay type: functional, organism-based; design: dose 1 mg/kg
Mus musculus [22] = test: Antiinflammatory activity in ovalbumin-sensitized BALB/c mouse asthma model lung assessed as suppression in IL-17 mRNA level at 1 mg/kg, ip administered 2 hrs before and 10 hrs after ovalbumin challenge measured after 24 hrs by RT-PCR analysis; assay type: functional, organism-based; design: dose 1 mg/kg
Mus musculus [23] = test: Antiinflammatory activity in ovalbumin-sensitized BALB/c mouse asthma model lung assessed as suppression in IL-33 mRNA level at 1 mg/kg, ip administered 2 hrs before and 10 hrs after ovalbumin challenge measured after 24 hrs by RT-PCR analysis; assay type: functional, organism-based; design: dose 1 mg/kg
Mus musculus [24] = test: Antiinflammatory activity in ovalbumin-sensitized BALB/c mouse asthma model lung assessed as suppression in COX-2 mRNA level at 1 mg/kg, ip administered 2 hrs before and 10 hrs after ovalbumin challenge measured after 24 hrs by RT-PCR analysis; assay type: functional, organism-based; design: dose 1 mg/kg
Mus musculus [25] = test: Antiinflammatory activity in ovalbumin-sensitized BALB/c mouse asthma model lung assessed as suppression in Muc5ac mRNA level at 1 mg/kg, ip administered 2 hrs before and 10 hrs after ovalbumin challenge measured after 24 hrs by RT-PCR analysis; assay type: functional, organism-based; design: dose 1 mg/kg
Mus musculus [26] = test: Antiinflammatory activity in ip dosed BALB/c mouse asthma model assessed as reduction in ovalbumin-induced eosinophil counts in bronchoalveolar lavage fluid administered 2 hrs before and 10 hrs after ovalbumin challenge measured after 24 hrs by cell counting; assay type: functional, organism-based; details: Lung
Mus musculus [27] = test: Antiinflammatory activity in ip dosed BALB/c mouse asthma model assessed as reduction in ovalbumin-induced total cell counts in bronchoalveolar lavage fluid administered 2 hrs before and 10 hrs after ovalbumin challenge measured after 24 hrs by cell counting; assay type: functional, organism-based; details: Lung
Mus musculus [28] = test: Antiinflammatory activity in BALB/c mouse asthma model assessed as reduction in ovalbumin-induced macrophage counts in bronchoalveolar lavage fluid at 1 mg/kg, ip administered 2 hrs before and 10 hrs after ovalbumin challenge measured after 24 hrs by cell counting; assay type: functional, organism-based; design: dose 1 mg/kg; details: Lung
Mus musculus [29] = test: Antiinflammatory activity in BALB/c mouse asthma model assessed as reduction in ovalbumin-induced lymphocyte counts in bronchoalveolar lavage fluid at 1 mg/kg, ip administered 2 hrs before and 10 hrs after ovalbumin challenge measured after 24 hrs by cell counting; assay type: functional, organism-based; design: dose 1 mg/kg; details: Lung
Mus musculus [30] = test: Antiinflammatory activity in ovalbumin-sensitized BALB/c mouse asthma model assessed as reduction in mucus production in lung at 1 mg/kg, ip administered 2 hrs before and 10 hrs after ovalbumin challenge measured after 24 hrs using PAS staining by histologic analysis; assay type: functional, organism-based; design: dose 1 mg/kg
Mus musculus [31] = test: Antiinflammatory activity in ovalbumin-sensitized BALB/c mouse asthma model assessed as reduction in goblet cell hyperplasia at 1 mg/kg, ip administered 2 hrs before and 10 hrs after ovalbumin challenge measured after 24 hrs using hematoxylin and eosin staining by histologic analysis; assay type: functional, organism-based; design: dose 1 mg/kg
Mus musculus [32] = test: Inhibition of ovalbumin-induced mast cell degranulation in BALB/c mouse asthma model at 1 mg/kg, ip administered 2 hrs before and 10 hrs after ovalbumin challenge measured after 24 hrs using toluidine blue staining by cell counting; assay type: functional, organism-based; design: dose 1 mg/kg
RBL-2H3 [33] = test: Inhibition of IgE-mediated rat RBL2H3 cell degranulation assessed as inhibition of beta-hexosaminidase release; assay type: functional, cell-based
Mus musculus [34] = test: Antiinflammatory activity in ovalbumin-sensitized BALB/c mouse asthma model assessed as reduction in methacholine-induced maximum total lung resistance at 1 mg/kg, ip administered 2 hrs before and 10 hrs after ovalbumin challenge; assay type: functional, organism-based; design: dose 1 mg/kg
Mus musculus [35] = test: Antiinflammatory activity in ovalbumin-sensitized BALB/c mouse asthma model assessed as reduction in methacholine-induced distensibility of the lung at 1 mg/kg, ip administered 2 hrs before and 10 hrs after ovalbumin challenge; assay type: functional, organism-based; design: dose 1 mg/kg
A549 = test: Cytotoxicity against human A549 cells assessed as reduction in cell viability at 3 to 120 uM after 24 to 48 hrs by MTS assay; assay type: cell-based; details: a549, 120 µM
Mus musculus [36] = test: Toxicity in BALB/c mouse assessed as reduction in red blood cell count at 1 mg/kg, ip; assay type: organism-based; design: dose 1 mg/kg, route intraperitoneal; details: in vivo
Mus musculus [37] = test: Toxicity in BALB/c mouse assessed as reduction in white blood cell count at 1 mg/kg, ip; assay type: organism-based; design: dose 1 mg/kg, route intraperitoneal; details: in vivo
Mus musculus [38] = test: Toxicity in BALB/c mouse assessed as reduction in hematocrit at 1 mg/kg, ip; assay type: organism-based; design: dose 1 mg/kg, route intraperitoneal; details: in vivo
Mus musculus [39] = test: Toxicity in BALB/c mouse assessed as reduction in hemoglobin concentration at 1 mg/kg, ip; assay type: organism-based; design: dose 1 mg/kg, route intraperitoneal; details: in vivo

Sequence of Transcription factor p65 (Homo sapiens) (Q04206 whole entry): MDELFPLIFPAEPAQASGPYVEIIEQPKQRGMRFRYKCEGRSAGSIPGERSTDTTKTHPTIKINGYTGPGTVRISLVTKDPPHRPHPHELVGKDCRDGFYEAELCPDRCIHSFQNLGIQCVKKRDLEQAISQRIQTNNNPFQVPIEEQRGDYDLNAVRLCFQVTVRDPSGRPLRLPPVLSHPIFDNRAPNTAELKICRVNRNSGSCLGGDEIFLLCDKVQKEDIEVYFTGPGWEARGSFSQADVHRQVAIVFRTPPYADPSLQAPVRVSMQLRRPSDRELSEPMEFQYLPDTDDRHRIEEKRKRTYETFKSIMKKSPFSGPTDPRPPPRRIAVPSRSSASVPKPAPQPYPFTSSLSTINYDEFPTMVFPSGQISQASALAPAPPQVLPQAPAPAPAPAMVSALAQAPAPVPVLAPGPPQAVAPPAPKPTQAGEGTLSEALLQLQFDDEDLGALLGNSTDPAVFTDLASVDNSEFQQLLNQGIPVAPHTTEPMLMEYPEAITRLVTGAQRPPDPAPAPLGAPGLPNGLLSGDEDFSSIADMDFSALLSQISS

C=C1CC[C@@H]2[C@](C)(CO)[C@H](O)CC[C@@]2(C)[C@@H]1/C=C/C1=CCOC1=O
active: inhibition (Mus musculus [3]) | Activity (Mus musculus [4]) | inhibition [5] | inhibition [6] | Activity (Mus musculus [7]) Dose-dependent effect | Activity (Mus musculus [8]) Dose-dependent effect | Activity (Mus musculus [9]) Dose-dependent effect | Activity (Mus musculus [10]) Dose-dependent effect | Activity (Mus musculus [11]) | Activity (Mus musculus [12]) | Activity (Mus musculus [13]) | Activity (Mus musculus [15]) | Activity (Mus musculus [16]) | Activity (Mus musculus [17]) | Activity (Mus musculus [18]) | Activity (Mus musculus [19]) | Activity (Mus musculus [20]) | Activity (Mus musculus [21]) | Activity (Mus musculus [22]) | Activity (Mus musculus [23]) | Activity (Mus musculus [24]) | Activity (Mus musculus [25]) | Activity (Mus musculus [26]) Dose-dependent effect | Activity (Mus musculus [27]) Dose-dependent effect | Activity (Mus musculus [28]) | Activity (Mus musculus [29]) | Activity (Mus musculus [30]) | Activity (Mus musculus [31]) | Activity (Mus musculus [34]) | Activity (Mus musculus [35])
inactive: Activity (Mus musculus [14]) | inhibition (Mus musculus [32]) | inhibition (RBL-2H3 [33])
Non-toxic: Activity [1] | Activity (RBL-2H3 [2]) | Activity (A549) | Activity (Mus musculus [36]) | Activity (Mus musculus [37]) | Activity (Mus musculus [38]) | Activity (Mus musculus [39])
